Here are results for two compounds from US11964021B2, “Bacterially derived, intact minicells for delivery of therapeutic agents to brain tumors” (EnGeneIC Molecular Delivery Pty Ltd, priority 2011, dated 2024).

Data set [1] relates to Canine brain tumor cells BCD-1, -8, -9 and J3T. In words: MTS cell proliferation assay, doxorubicin sensitivity, canine cells. Format: cell-based. As to conditions: 1.7 nM to 8,600 nM, 72 hours. The procedure: (§1) Canine brain tumor cells BCD-1, -8, -9 and J3T and human brain tumor cell line U87-MG were seeded into 96 well plates at 5×10^3 cells per well. Cells were incubated overnight at 37° C., 5% CO2.
(§2) Doxorubicin was added to cells in […], of relevant media containing serum at concentrations ranging from 1.7 nM to 8,600 nM and incubated for 72 hours.
(§3) To measure the cytotoxic effect of Doxorubicin an MTS cell proliferation assay was performed. To each well 20 uL of MTS solution (CellTitre 96® Aqueous One MTS reagent—Promega) was added and incubated in the dark for 30 minutes. Absorbance was read at a wavelength of 490 nm. Data was analysed in Prism GraphPad (La Jolla, CA, USA) using non-linear regression and a 4-parameter curve fit.
(Tetrazolium dyes change colour on reduction, which living cells bring about.)

Data set [2] deals with human brain tumor cell line U87-MG. The data set is described as follows: MTS cell proliferation assay, doxorubicin sensitivity, human cells. The data set is classed as cell-based. As to conditions: 1.7 nM to 8,600 nM, 72 hours. As to the method: as §1, §2, §3
For data set [3] the following is noted: kinetics, FIG. 2A of MacDiarmid et al. Cancer Cell (2007); cited from earlier work.

The structures appear in SMILES notation.

For `COc1cccc2c1C(=O)c1c(O)c3c(c(O)c1C2=O)C[C@@](O)(C(=O)CO)C[C@@H]3O[C@H]1C[C@H](N)[C@H](O)[C@H](C)O1` [doxorubicin, Doxorubicin], the “sensitivity of cells to doxorubicin” value in data set [1] and in data set [2] was “equally sensitive” throughout. Besides, the “leakage of drug out of intact minicells once packaged” value in data set [3] was “did not leak out”.
Turning to `N.N.[Cl][Pt][Cl]` [cisplatin, Cisplatin], the “leakage of drug out of intact minicells once packaged” value in data set [3] was “did not leak out”.
